Results published in US8921268B2, “Herbicidal composition” (Sumitomo Chemical Company, Limited, priority 2012, dated 2014).

Columns and labels:
Ipomoea hederacea = assay: Pre-emergence soil spray pot test, herbicidal activity (Example 2); assay type: in vivo; settings: scale 0 to 100; 20 g/ha; soil spray on day of sowing; ten days after spray treatment; greenhouse
Experimental: (§1) Ipomoea hederacea was sowed on a plastic pot filled with a soil. Following the sowing, on the day of the sowing, a mixed liquid of flumioxazin, isoxaflutole, and cyprosulfamide was sprayed uniformly so that the amounts of the agents might become those shown in Table 2 in a sprayed water amount of 500 L/ha. The mixed liquid of flumioxazin, isoxaflutole, and cyprosulfamide was prepared by dissolving the respective compounds in prescribed amounts separately in acetone containing 2% (w/v) of Tween 20 (surfactant, produced by Tokyo Chemical Industry Co., Ltd.), diluting the respective solutions with water and then combining them, followed by dilution with water so that the final acetone concentration of the spray liquid might be 10% by volume. After the spray treatment, the pot was carried into a greenhouse. Ten days after the spray treatment, the herbicidal activity to Ipomoea hederacea was evaluated.

Echinochloa crus-galli = assay: Pre-emergence soil spray pot test, herbicidal activity (Example 3); assay type: in vivo; settings: scale 0 to 100; 2 g/ha; soil spray on day of sowing; twenty days after spray treatment; greenhouse
Experimental: as §1, with “Echinochloa crus-galli was” for “Ipomoea hederacea was”, “Table 3” for “Table 2”, “greenhouse. Twenty” for “greenhouse. Ten”, “to Echinochloa crus-galli” for “to Ipomoea hederacea”

For `C#CCN1C(=O)COc2cc(F)c(N3C(=O)C4=C(CCCC4)C3=O)cc21` [Flumioxazin], the “Herbicidal activity Ipomoea hederacea” value (Ipomoea hederacea) was 80 and the “Herbicidal activity Echinochloa crus-galli” value (Echinochloa crus-galli) was 10.
